We go through one compound from patent US20150119422A1, “SIMETHICONE FORMULATION” (DISPHAR INTERNATIONAL B.V., priority 2011, published 2015).

This data set is classed as physicochemical. The following applies: pH range of 1 to 7. How it is done:
Dissolution studies for determining release of the active ingredient at various pHs were carried out using a TDT-08 L dissolution apparatus from Electrolab®.
The above-mentioned tablets were studied for release profile, at 30 minutes, in solutions of varied pH such as 1.2, 4.5 and 6.8 respectively in aqueous solutions of 0.1 N HCl, acetate buffer and phosphate buffer.

Structures can show the parent of a compound that is named as a salt.

With `CN(C)C(=O)C(CCN1CCC(O)(c2ccc(Cl)cc2)CC1)(c1ccccc1)c1ccccc1` [loperamide hydrochloride], the “pH dependence of release / dissolution” value was “pH dependent dissolution characteristics”.
